Assay results published in patent US11306098B2, “Substituted pyrrolo[1,2-a]pyrazines and pyrrolo[1,2-a][1,4]diazepines as TREX1 inhibitors” (VENENUM BIODESIGN, LLC, priority 2019, dated 2022).

Assays:
[1] = target: human TREX1 (Homo sapiens (Human), UniProt Q9NSU2); assay: TREX1 Exonuclease Assay (human enzyme); assay type: biochemical; conditions: human TREX1 0.5 nM, FAM/BHQ1-labeled DNA oligonucleotide
Experimental: The TREX1 Exonuclease assay is an exemplary in vitro assay for measuring the activity of the TREX1 inhibitors of the present invention. In this assay, TREX1 exonuclease activity was evaluated by measuring the increase in fluorescence resulting from TREX1-catalyzed removal of a quencher from the 3′ end of a FAM-labeled DNA oligonucleotide (5′FAM-CCA CGA GAG CGT-BHQ1-3′). The assay was conducted using Wild Type (WT) human or murine TREX1 enzyme constructs corresponding to amino acids 55-297 of UniProt ID Q9NSU2-1 (SEQ ID NO: 1), or amino acids 1-242 of UniProt ID Q91XB0-1 (SEQ ID NO: 2), respectively. See, e.g., Example A.
For human TREX1, the nucleotide sequence of the gene construct was codon optimized for expression in the bacterial host. The sequence was incorporated into the pMAL-c5e vector (NEB) downstream of a solubility-promoting MBP (maltose binding protein) fusion partner. The fusion protein product was expressed in E. coli strain BL21 (DE3) (Millipore) and purified in a series of chromatographic steps. Initial steps were conducted using a dextrin sepharose affinity column followed by a Q-sepharose ion exchange column (both GE Healthcare). After the second column the MBP partner was removed by incubation with enterokinase (NEB). Further purification was carried out with the second application of a Q-sepharose column followed by a Superdex 75 (GE Healthcare) size exclusion column. Finally, a heparin sepharose column (GE Healthcare) was applied to remove contaminating nucleotides. Similar methods were used in the preparation of the murine TREX1 enzyme and are described in Example B set forth below.
To evaluate the effect of compounds on TREX1 activity, test compounds were serially diluted (11-point, 3-fold) from 10 mM stock solutions and delivered to 384-well low-volume assay plates in 80 nL DMSO using an acoustic dispenser. Next, 4 μL of human TREX1 (0.5 nM), or murine TREX1 (1 nM), diluted in assay buffer (20 mM Tris pH 7.5, 5 mM MgCl2, 100 μg/mL BSA, 0.002% Triton X-100, 2 mM DTT), was added to the assay plate. After incubating for 30 minutes, 4 μL of labeled DNA oligonucleotide (500 nM) in assay buffer was added to initiate TREX1 exonuclease activity. The reaction was allowed to proceed for 45 minutes at room temperature prior to the addition of 4 μL of 150 mM EDTA to halt TREX1 activity. Assay plates were equilibrated for an additional 30 minutes and read on an EnVision Plate Reader (Perkin Elmer) to measure fluorescence emission at 535 nm following excitation at 485 nm. Fluorescence was plotted as a function of log molar compound concentration and fit to four-parameter dose-response equation to determine compound IC50.

[2] = tested on: THP1 Dual cells (ISRE Lucia reporter, cGAS-STING pathway); assay: THP1 monocyte assay, ISRE Lucia luciferase reporter; assay type: cell-based, human; conditions: 48 hours, luciferase signal versus control wells without compound
Text: Example C is a cell-based assay for TREX1 inhibitors using THP1 Dual™ cells (Invivogen), a human monocyte cell line that has stable integration of an Interferon Stimulated Response Element (ISRE) Lucia reporter gene. The Lucia gene encodes a secreted luciferase reporter protein, under the control of an ISG54 minimal promoter in conjunction with five IFN-stimulated response elements. Activation of the cGAS-STING pathway in THP1 Dual™ cells leads to enhanced luciferase secretion and increased luminescence.
A cell-based assay was established using THP1 Dual™ cells (Invivogen), a human monocyte cell line that has stable integration of an Interferon Stimulated Response Element (ISRE) Lucia reporter gene. The Lucia gene encodes a secreted luciferase reporter protein, under the control of an ISG54 minimal promoter in conjunction with five IFN-stimulated response elements. Activation of the cGAS-STING pathway in these cells leads to enhanced luciferase secretion. The assay was conducted in standard 384-well white tissue culture plates. Cells (25,000 in 25 μL RPMI 1640 containing 10% Heat-Inactivated FBS, 1× Glutagro, 10 mM HEPES, 1 mM sodium pyruvate, 1× Pen/Strep, 100 μg/mL Normocin, 100 μg/mL Zeocin, 10 μg/mL Blasticidin) were added to the plate followed by 25 μL of compound in the same media+0.2% DMSO. The assay was incubated for 48 hours at 37° C. in 5% CO2. An aliquot of 5 μl was removed to combine with 12.5 μL of the luciferase detection reagent, QUANTI-Luc™ Gold (Invivogen) in a white 384-well plate. The luminescent signal was then read using an EnVision plate reader (Perkin Elmer). The fold activation was calculated by dividing the signal in wells containing test compound by the signal in the control wells without compound (see Table 7).

human TREX1, sequence (Q9NSU2 1-242): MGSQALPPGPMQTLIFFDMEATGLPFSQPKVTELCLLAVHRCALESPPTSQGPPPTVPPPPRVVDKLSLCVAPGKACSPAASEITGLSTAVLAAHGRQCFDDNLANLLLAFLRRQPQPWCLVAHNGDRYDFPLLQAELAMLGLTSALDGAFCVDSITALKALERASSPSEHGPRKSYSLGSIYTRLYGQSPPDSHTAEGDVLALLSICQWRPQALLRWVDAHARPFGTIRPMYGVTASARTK

SMILES: N[C@@H]1C[C@H]2C(=O)N([C@H](CCC(=O)O)C(=O)NCc3ccc(Cl)c(Cl)c3)CCC(CCc3ccccc3)N2C1 (some centres unmarked) [Example 14B]
- IC50 [1]: < 1 µM
- Fold activation @ 10 μM [2]: 12
